Entries after “also recorded” stand apart in the source; their conditions may differ.
Columns and labels:
[1] = system: V79 cells
Experimental: NADH was used as a co-factor for both enzymes.
All treatments were for 2 hours at 37° C. and the cells were then plated out for their resulting colony forming ability. The nitroreductase concentration was 2 μg/ml and NADH was used as a co-factor. The initial cell density was 2×10^5 /mL.
Various concentrations of the prodrug were incubated with 1 mL of V79 cells (2×10^5 /mL), NADH (500 μL) and NR (2, 5 or 10 μg/mL) in PBS. After 2 h at 37° C., the cells were harvested and assayed for colony forming ability.

[2] = biological target: E. coli nitroreductase (Escherichia coli, UniProt P38489); assay: % drug reduction by E. coli nitroreductase during V79 cell treatment; format: biochemical; conditions: 2 hours at 37° C.
Excerpt: The initial cell density was 2×10^5 /mL.

[3] = system: nitroreductase-transduced NIH3T3 cells; assay: Bystander effect, 3H-thymidine incorporation in mixtures of 3T3-NTR14 and untransduced NIH3T3 cells; format: cell-based; conditions: 50% transduced cells, FIG. 2
Excerpt: FIG. 2. […] Results are plotted as the quantity of ^3 H-thymidine incorporation into live cells […] (Y-axis) versus the percentage of transduced cells in the sample population (X-axis).

[4] = system: NTR-expressing NIH3T3 cells; assay: Killing of serum-deprived (arrested) NTR-expressing NIH3T3 cells; format: cell-based; conditions: arrest by serum deprivation, FIG. 3a
Excerpt: (§1) FIG. 3. Two graphs comparing the nitroreductase/CB 1954 and thymidine kinase/gancyclovir enzyme/prodrug systems.

[5] = system: HB4a/NR cells; assay: Enzymatic reduction of CB 1954 by HB4a/NR cell lysate (HPLC); format: biochemical, human; conditions: 100 μM CB 1954, 500 μM NADH, pH7, 37° C., FIG. 5
Experimental: CB 1954 (100 μM) and NADH (500 μM) were incubated with a cell lysate prepared by sonication (250 μl, 1 mg/mL protein) in 10 mM sodium phosphate buffer (pH7) at 37° C. At various times aliquots (10 μl) were injected onto a Partisphere SCX (110×4.7 mm) HPLC column and eluted isocratically (2 ml/min) with 50 mM NaH2 PO4 in 1% (v/v) methanol. The eluate was continuously monitored for absorption at 260, 310, 340 nm using a diode-array detector. Alternatively, [U-^3 H]CB 1954 was added to give an activity of 1.6×10^5 dpm per nmole). Samples (0.3 ml) were collected and their tritium activity determined by liquid scintillation counting. Protein concentration was determined by a standard method (Biorad), calibrated against bovine albumin.

[6] = system: HB4a/NR cells; assay: Cell survival of HB4a/NR cells, plates scored by eye for cell growth; format: cell-based, human; conditions: 2 hour exposure
Experimental: (§2) Cells were trypsinised and resuspended in fresh media at 2×10^5 cells per mL. They were then treated for two hours with CB 1954 (10 μl of appropriate stock in DMSO). The treated cells were then spun down, washed with fresh media, and plated out in triplicate at various concentrations. Cells were fixed and stained after 14 days incubation at 37° C. in a humidified atmosphere of 5% CO2 and 95% air.
(§3) The plating efficiency of both the HB4a/NR and HB4a/REP8 cell lines was poor and cells only grew when plated at a high initial cell density (1×10^4 per dish). These plates were scored by eye for cell growth. There is a dramatic difference in cell survival between the two cell lines.

[7] = Cell survival of HB4a/REP8 cells, plates scored by eye for cell growth; format: cell-based; conditions: human, 2 hour exposure, read-out: dose up to which no cytotoxicity is shown
Experimental: as §2, §3

[8] = system: HB4a/NR cells; assay: DNA interstrand crosslinks, sedimentation in alkaline sucrose; format: cell-based, human
Experimental: HB4a/NR cells were radiolabelled by growth for 48 hours in [^3 h]-thymidine. The cells were then treated with either 0, 10 or 50 μM CB 1954 for 24 hours and their DNA then analysed by sedimentation in alkaline sucrose.

[9] = system: TK-expressing NIH3T3 cells; assay: Killing of arrested TK-expressing NIH3T3 cells; format: cell-based; conditions: 10^-8 to 10^-3 M, FIG. 3b
Excerpt: as §1

[10] = 50 μM drug + 500 μM NADH, no nitroreductase
[11] = 50 μM drug + nitroreductase 2 μg/ml + 500 μM NADH
[12] = 50 μM drug + nitroreductase 2 μg/ml, no NADH
[13] = 50 μM drug alone, no NADH, no nitroreductase

## Cc1c2oc3c(C)ccc(C(=O)N[C@@H]4C(=O)N[C@H](C(C)C)C(=O)N5CCC[C@H]5C(=O)N(C)CC(=O)N(C)[C@@H](C(C)C)C(=O)O[C@@H]4C)c3nc-2c(C(=O)N[C@@H]2C(=O)N[C@H](C(C)C)C(=O)N3CCC[C@H]3C(=O)N(C)CC(=O)N(C)[C@@H](C(C)C)C(=O)O[C@@H]2C)c(NC(=O)OCc2ccc([N+](=O)[O-])cc2)c1=O
[1]; NR 2, 5 or 10 μg/mL, NADH, 2 h at 37° C., FIG. 1
  cytotoxicity of the prodrug in the presence of NR: greatly enhanced in the presence of NR

## NC(=O)c1cc(N2CC2)c([N+](=O)[O-])cc1[N+](=O)[O-] [CB 1954, 5-(aziridin-1-yl)-2,4-dinitrobenzamide]
[2]; [10]
  % DRUG REDUCTION: < 1.0%
[2]; [11]
  % DRUG REDUCTION: 72%
[2]; [12]
  % DRUG REDUCTION: < 1.0%
[2]; [13]
  % DRUG REDUCTION: < 1.0%
[3]
  inhibition of 3H-thymidine incorporation: 90%
[4]
  effect of cell arrest on killing by the prodrug: does not affect their killing; also recorded: does not affect the relative cytotoxicity
[5]
  decrease in the concentration of CB 1954: time dependent decrease
[6]
  dose at which cytotoxicity is exhibited: 1.0 µM
[7]
  MNTC at 2 h: > 100 µM
[8]; 10 μM CB 1954 for 24 hours
  DNA breaks: 25 per 10^9 daltons of DNA
  DNA crosslinks: about 6 per 10^9 daltons of DNA
[8]; 50 μM CB 1954 for 24 hours
  DNA breaks: 28 per 10^9 daltons of DNA
  DNA crosslinks: 12 per 10^9 daltons of DNA

## Nc1nc(O)c2ncn(COC(CO)CO)c2n1 [GCV, gancyclovir]
[9]
  effect of cell arrest on killing by the prodrug: prevents GCV killing; also recorded: prevents gancyclovir (GCV) cytotoxicity

## NC(=O)c1cc(N(CCCl)CCCl)c([N+](=O)[O-])cc1[N+](=O)[O-] [SN23862, 5-(bis(2'-chloroethyl)amino)-2,4-dinitrobenzamide]
[2]; [10]
  % DRUG REDUCTION: < 1.0%
[2]; [11]
  % DRUG REDUCTION: 95%
[2]; [12]
  % DRUG REDUCTION: < 1.0%
[2]; [13]
  % DRUG REDUCTION: < 1.0%

B1: Nitroreductase: E. coli nitroreductase, enzyme that converts the prodrug into a cytotoxic drug (protein)
chain: MDIISVALKRHSTKAFDASKKLTPEQAEQIKTLLQYSPSSTNSQPWHFIVASTEEGKARVAKSAAGNYVFNERKMLDASHVVVFCAKTAMDDVWLKLVVDQEDADGRFATPEAKAANDKGRKFFADMHRKDLHDDAEWMAKQVYLNVGNFLLGVAALGLDAVPIEGFDAAILDAEFGLKEKGYTSLVVVPVGHHSVEDFNATLPKSRLPQNITLTEV
[1]; nitroreductase 2 μg/ml alone, no drug, 2 hours at 37° C.
  % SURVIVAL: 94%
